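Where inhibition never reached the appropriate level, the endpoint shown equals the highest concentration tested. Otherwise, values were interpolated linearly from a five-concentration, 48-hour dose response in 96-well plates. GI50 is the concentration that inhibits growth by half. TGI denotes the concentration required for complete inhibition of growth.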
Legend:
Assay in all cases: inhibition of tumour cell growth, NCI panel, 48 h
NCI/ADR-RES ovarian = system: NCI/ADR-RES ovarian
IGROV1 ovarian = system: IGROV1 ovarian
SW-620 colon = system: SW-620 colon
OVCAR-5 ovarian = system: OVCAR-5 ovarian
UACC-257 melanoma = system: UACC-257 melanoma
DU-145 prostate = system: DU-145 prostate
MALME-3M melanoma = system: MALME-3M melanoma
SN12C renal = system: SN12C renal
HCT-116 colon = system: HCT-116 colon
NCI-H460 lung = system: NCI-H460 lung
M14 melanoma = system: M14 melanoma
OVCAR-4 ovarian = system: OVCAR-4 ovarian
EKVX NSCLC = system: EKVX NSCLC
HCC-2998 colon = system: HCC-2998 colon
PC-3 prostate = system: PC-3 prostate
RPMI-8226 leukemia = system: RPMI-8226 leukemia
SK-MEL-28 melanoma = system: SK-MEL-28 melanoma
TK-10 renal = system: TK-10 renal
SNB-75 CNS = system: SNB-75 CNS
786-0 renal = system: 786-0 renal
MCF7 breast = system: MCF7 breast
A498 renal = system: A498 renal
HOP-92 NSCLC = system: HOP-92 NSCLC
NCI-H226 lung = system: NCI-H226 lung
SF-268 CNS = system: SF-268 CNS
T-47D breast = system: T-47D breast
HL-60(TB) leukemia = system: HL-60(TB) leukemia
SNB-19 CNS = system: SNB-19 CNS
COLO 205 colon = system: COLO 205 colon
K-562 leukemia = system: K-562 leukemia
CAKI-1 renal = system: CAKI-1 renal
NCI-H23 lung = system: NCI-H23 lung
SF-295 CNS = system: SF-295 CNS
BT-549 breast = system: BT-549 breast
NCI-H522 lung = system: NCI-H522 lung
HOP-62 NSCLC = system: HOP-62 NSCLC
ACHN renal = system: ACHN renal
HCT-15 colon = system: HCT-15 colon
UACC-62 melanoma = system: UACC-62 melanoma
HT29 colon = system: HT29 colon
SK-OV-3 ovarian = system: SK-OV-3 ovarian
SF-539 CNS = system: SF-539 CNS
LOX IMVI melanoma = system: LOX IMVI melanoma
CCRF-CEM leukemia = system: CCRF-CEM leukemia
SK-MEL-2 melanoma = system: SK-MEL-2 melanoma
RXF 393 renal = system: RXF 393 renal
A549 NSCLC = system: A549 NSCLC
KM12 colon = system: KM12 colon
SK-MEL-5 melanoma = system: SK-MEL-5 melanoma
MDA-MB-435 = system: MDA-MB-435
U251 CNS = system: U251 CNS
MDA-MB-231 breast = system: MDA-MB-231 breast
HS 578T breast = system: HS 578T breast
UO-31 renal = system: UO-31 renal
SR leukemia = system: SR leukemia

O=C(CNc1nc(-c2cccc([N+](=O)[O-])c2)cs1)Nc1cccc([N+](=O)[O-])c1
GI50 (NCI/ADR-RES ovarian): 1470 nM
TGI (NCI/ADR-RES ovarian): 4590 nM
GI50 (IGROV1 ovarian): 333 nM
TGI (IGROV1 ovarian): 1330 nM
GI50 (SW-620 colon): 372 nM
TGI (SW-620 colon): 2010 nM
GI50 (OVCAR-5 ovarian): 542 nM
TGI (OVCAR-5 ovarian): 2370 nM
GI50 (UACC-257 melanoma): 1950 nM
TGI (UACC-257 melanoma): 5080 nM
GI50 (DU-145 prostate): 2020 nM
TGI (DU-145 prostate): 4790 nM
GI50 (MALME-3M melanoma): 1580 nM
TGI (MALME-3M melanoma): 3180 nM
GI50 (SN12C renal): 1740 nM
TGI (SN12C renal): 5030 nM
GI50 (HCT-116 colon): 1240 nM
TGI (HCT-116 colon): 3180 nM
GI50 (NCI-H460 lung): 1040 nM
TGI (NCI-H460 lung): 2760 nM
GI50 (M14 melanoma): 1480 nM
TGI (M14 melanoma): 3060 nM
GI50 (OVCAR-4 ovarian): 2090 nM
TGI (OVCAR-4 ovarian): 5070 nM
GI50 (EKVX NSCLC): 2060 nM
TGI (EKVX NSCLC): 4740 nM
GI50 (HCC-2998 colon): 1780 nM
TGI (HCC-2998 colon): 3480 nM
GI50 (PC-3 prostate): 593 nM
TGI (PC-3 prostate): 2660 nM
GI50 (RPMI-8226 leukemia): 1470 nM
TGI (RPMI-8226 leukemia): 4320 nM
GI50 (SK-MEL-28 melanoma): 1490 nM
TGI (SK-MEL-28 melanoma): 3080 nM
GI50 (TK-10 renal): 1530 nM
TGI (TK-10 renal): 5820 nM
GI50 (SNB-75 CNS): 1070 nM
TGI (SNB-75 CNS): 2350 nM
GI50 (786-0 renal): 1940 nM
TGI (786-0 renal): 4880 nM
GI50 (MCF7 breast): 942 nM
TGI (MCF7 breast): 4610 nM
GI50 (A498 renal): 1300 nM
TGI (A498 renal): 2580 nM
GI50 (HOP-92 NSCLC): 1700 nM
TGI (HOP-92 NSCLC): 4000 nM
GI50 (NCI-H226 lung): 1040 nM
TGI (NCI-H226 lung): 3320 nM
GI50 (SF-268 CNS): 1690 nM
TGI (SF-268 CNS): 3350 nM
GI50 (T-47D breast): 1910 nM
TGI (T-47D breast): 4870 nM
GI50 (HL-60(TB) leukemia): 2080 nM
TGI (HL-60(TB) leukemia): 7730 nM
GI50 (SNB-19 CNS): 2220 nM
TGI (SNB-19 CNS): 6440 nM
GI50 (COLO 205 colon): 1280 nM
TGI (COLO 205 colon): 2850 nM
GI50 (K-562 leukemia): 1030 nM
TGI (K-562 leukemia): > 100000 nM
GI50 (CAKI-1 renal): 715 nM
TGI (CAKI-1 renal): 2600 nM
GI50 (NCI-H23 lung): 404 nM
TGI (NCI-H23 lung): 1760 nM
GI50 (SF-295 CNS): 2120 nM
TGI (SF-295 CNS): 5470 nM
GI50 (BT-549 breast): 627 nM
TGI (BT-549 breast): 2210 nM
GI50 (NCI-H522 lung): 1330 nM
TGI (NCI-H522 lung): 2900 nM
GI50 (HOP-62 NSCLC): 1980 nM
TGI (HOP-62 NSCLC): 4130 nM
GI50 (ACHN renal): 1300 nM
TGI (ACHN renal): 2630 nM
GI50 (HCT-15 colon): 582 nM
TGI (HCT-15 colon): 2810 nM
GI50 (UACC-62 melanoma): 662 nM
TGI (UACC-62 melanoma): 2030 nM
GI50 (HT29 colon): 744 nM
TGI (HT29 colon): 2290 nM
GI50 (SK-OV-3 ovarian): 871 nM
TGI (SK-OV-3 ovarian): 2410 nM
GI50 (SF-539 CNS): 1530 nM
TGI (SF-539 CNS): 3490 nM
GI50 (LOX IMVI melanoma): 577 nM
TGI (LOX IMVI melanoma): 2040 nM
GI50 (CCRF-CEM leukemia): 446 nM
TGI (CCRF-CEM leukemia): > 100000 nM
GI50 (SK-MEL-2 melanoma): 1790 nM
TGI (SK-MEL-2 melanoma): 3310 nM
GI50 (RXF 393 renal): 522 nM
TGI (RXF 393 renal): 2070 nM
GI50 (A549 NSCLC): 2630 nM
TGI (A549 NSCLC): 9090 nM
GI50 (KM12 colon): 1360 nM
TGI (KM12 colon): 3090 nM
GI50 (SK-MEL-5 melanoma): 1790 nM
TGI (SK-MEL-5 melanoma): 3240 nM
GI50 (MDA-MB-435): 1650 nM
TGI (MDA-MB-435): 3070 nM
GI50 (U251 CNS): 1710 nM
TGI (U251 CNS): 5000 nM
GI50 (MDA-MB-231 breast): 2110 nM
TGI (MDA-MB-231 breast): 4560 nM
GI50 (HS 578T breast): 1600 nM
TGI (HS 578T breast): 5280 nM
GI50 (UO-31 renal): 1290 nM
TGI (UO-31 renal): 2670 nM
GI50 (SR leukemia): 419 nM
TGI (SR leukemia): > 100000 nM
